Laboratory results: ChEMBL document CHEMBL3507680, “University of Dundee, Gates Library screen for HepG2 cell viability”

Experiment: Human HepG2 cell viability assay in 384 well format
Assay type: toxicity, cell-based
Set-up: dose 125 nL, time 70.5 hour; cytotoxicity at 70.5 h: concentration not given beside the values
Conditions: HepG2 cells, read-out: Inhibition

| SMILES | cytotoxicity at 70.5 h |
| --- | --- |
| O=C(c1cccnc1)N1CCC2(CC1)COCCN(c1ncccn1)C2 | -9.03% |
| CN(Cc1ccccc1CN1CCCC1)C(=O)c1c(O)cccc1O | 7.79% |
| Cc1cc(C(F)(F)F)c2c(=O)n(Cc3ccon3)n(C)c2n1 | -5.27% |
| CC(=O)Nc1ccc(-n2cncn2)c(F)c1 | -2.56% |
| CCCc1n[nH]c(C2CN(C(=O)CCCn3ccnc3)CCO2)n1 (stereo not given) | -0.218% |
| CCNc1ncc(C(=O)N(C)Cc2nc3ccccc3n2C)cn1 | -2.99% |
| Cc1ccc(N2CCCN(C(=O)CC3C=CCC3)CC2)nn1 (stereo not given) | -4.92% |
| Cc1cccc(OC2CCN(c3ccc(C#N)cn3)CC2)n1 | -1.77% |
| Cc1cccc(CN2CCCC[C@H]3CN(c4ncccn4)C[C@H]32)c1 | 5.5% |
| CO[C@H]1C[C@@H]2CN(C(=O)c3cccc4c3OCCO4)C[C@@H]2C1 | 20.7% |
| Cc1cccc(CS(=O)(=O)CC(O)Cn2cccn2)c1 (stereo not given) | -4.24% |
| CC(C(=O)Nc1ccccn1)n1ccc(C(F)(F)F)n1 (stereo not given) | -15.3% |
| CCc1ncc(C(=O)N2CCOCC2c2c(C)n[nH]c2C)s1 (stereo not given) | -2.25% |
| CCOc1ccc(C#N)cc1NC(=O)N1CCC(n2cncn2)CC1 | 5.95% |
| CCCc1ccc(C(=O)N2Cc3c(Cn4ccnc4)nn(C)c3C2)cc1 | -8.3% |
| O=S(=O)(CC1CCCN1S(=O)(=O)c1cccnc1)c1ccccc1 (stereo not given) | -8.38% |
| Cc1cnc(N)c(C(=O)C2CCN(C(=O)C3CCC3)CC2)c1 | 11.3% |
| COc1cc2c(cc1CN1C[C@@H](CN3CCOCC3)[C@@H](CO)C1)CCC2 | -2.99% |
| CN(C)C(=O)CS(=O)(=O)Cc1cc(Cl)c2c(c1)OCO2 | -2.34% |
| Cc1cccc(CN2C[C@@H]3OCCN(c4ccnc(N(C)C)n4)[C@@H]3C2)c1 | 10% |
| CN1N=C(C(=O)N2CCCCC2)S(=O)(=O)c2ccccc21 | 1.74% |
| CC(C)CCN1C[C@H]2C[C@H](C(=O)NCc3ccccc3)[C@@H](C1)O2 | 5.49% |

| SMILES | cytotoxicity at 70.5 h |
| --- | --- |
| O=C(c1sccc1C1CC1)N1CCCN(Cc2cscn2)CC1 | -0.238% |
| COC(C(=O)NCc1c(C)nc2cc(=O)[nH]n2c1C)c1ccccc1 (stereo not given) | -3.2% |
| CC(C)(C)c1ncc(C(=O)NCCn2ccnc2)s1 | 24.5% |
| COc1ccc(-n2nc(C3CC3)nc2CCn2cnnn2)cc1 | 26.8% |
| CC(=O)Nc1cccc2c1ccn2CC(=O)Nc1ncc[nH]1 | -5.41% |
| O=S(=O)(c1ccc2c(c1)CCC2)N1CCCC(Cn2cncn2)C1 (stereo not given) | 0.224% |
| O=C(O)c1c(-c2ccncc2)ncc2c1CCN(Cc1ccco1)C2 | 3.95% |
| O=C1CN(C(=O)c2cc3c(F)cc(Br)cc3[nH]2)CCN1 | -4.59% |
| CNC(=O)[C@@H]1C[C@@H](N)CN1C1CCN(Cc2ccccn2)CC1 | 20.3% |
| Cc1cc(CN(C)C(=O)CN2CCCCCC2=O)no1 | -10.3% |
| Cc1ccc(-c2nc(CNC3CCc4ncnn4C3)no2)cc1 (stereo not given) | -1.3% |
| COCC(=O)N(C)Cc1nc(N(C)C)ncc1-c1ccncc1 | -11.3% |
| CCc1nc(NCCCn2cccn2)c2c(n1)c(C)nn2CC | 14.8% |
| COc1ccc(CC(=O)N2CCCC(n3cccn3)C2)cc1F (stereo not given) | -6.84% |
| Cc1nn(C)c(C)c1CCC(=O)NCc1cccnc1OC1CCCC1 | -3.92% |
| CN1CCC(N2C[C@H](O)C[C@H]2c2nc(Cc3ccccc3)no2)CC1 | -7.37% |
| CN(C)Cc1ccc(C2CCCCN2C(=O)c2cccc(CO)n2)cc1 (stereo not given) | 23.6% |
| CNC(=O)C1CCN(c2cc(C3CCNCC3)nc(C)n2)C1 (stereo not given) | -19.2% |
| CC(=O)N1CCN([C@@H]2CCC[C@@H](NC(=O)c3cccnc3)[C@H]2O)CC1 | -11.5% |
| CSc1ncnc(NCc2ccco2)c1C#N | -12.3% |
| CN1CCN(Cc2ccccc2CNC(=O)c2cc(Br)ccc2F)CC1 | 10.8% |
| CC(C)c1cc(C(=O)N2CCN(c3cccc(C(=O)O)c3)CC2)n(C)n1 | -13.2% |

| SMILES | cytotoxicity at 70.5 h |
| --- | --- |
| CC(NC(=O)Cn1cccnc1=O)c1ccc(OC(F)(F)F)cc1 (stereo not given) | -8.28% |
| COc1ccccc1C1(CNc2nnc(C)c(C)c2C#N)CCOCC1 | -5.67% |
| Cc1nc(N)nc(C)c1CC(=O)N1CCC2(CC1)OCCCC2O (stereo not given) | -13.9% |
| Fc1cccc(-c2nc(CN3CCOC(Cn4cncn4)C3)co2)c1 (stereo not given) | -15.8% |
| Cc1ncc(CN2CC[C@@](C)(O)[C@H](Oc3cccc(F)c3)C2)cn1 | 14.8% |
| Cc1cc(C)cc(NC(=O)Cc2c(C)nc3c(c2C)c(=O)[nH]n3C)c1 | -0.0448% |
| Cc1nc(-c2ccccc2)n(CC(=O)NC(C)(C)C)n1 | 1.44% |
| COc1ccc(CCCN(C)C(=O)c2cc(Cl)c[nH]2)cc1OC | -10.5% |
| Cc1ccc(C)c(-n2ccc3nc(N4CCCC4)ncc3c2=O)c1 | -7.78% |
| CCc1c(C(=O)N2C[C@H]3CC[C@@H]2CN(c2cnccn2)C3)csc1C | -6.26% |
| CN1CCN(c2ccc(F)cc2NC(=O)NCc2ccon2)CC1 | 0.112% |
| O=C(CCc1ccco1)Nc1cccc(S(=O)(=O)C(F)F)c1 | -9.11% |
| Cc1ccc(C(=O)N2CCCC(C(=O)N3CCCCC3)C2)c(O)c1 (stereo not given) | 13.3% |
| CC(C)c1noc(CN(C)C(=O)c2ncn[nH]2)n1 | 3.61% |
| Cc1ccc2c(c1)C(NC(=O)C1CCN(S(C)(=O)=O)CC1)CC(C)(C)O2 (stereo not given) | -2.93% |
| O=C(c1ccncc1)N1CCC2(CC1)CCN(Cc1ccccn1)C2=O | 15.2% |
| CN(Cc1ccc2c(c1)OCO2)C(=O)NCCc1cnn(C)c1 | -3.13% |
| CSc1ccccc1NC(=O)c1ccc(N2CCOCC2)nn1 | -3.96% |
| CC(=O)NCCCC(=O)N1CCc2[nH]c(-c3ccccc3)nc2C1 | -5.92% |
| O=C(CCn1cncn1)NCC(c1ccco1)N1CCCC1 (stereo not given) | -4.48% |
| COCCC1(CNC(=O)Nc2ccc(-n3cccn3)cc2)CCC1 | 2.32% |
| CCC(=O)N1CCOC(c2cc(Nc3nncs3)cc(C)n2)C1 (stereo not given) | -5.24% |

| SMILES | cytotoxicity at 70.5 h |
| --- | --- |
| CNC(=O)[C@@H]1[C@H]2CN(Cc3ccoc3)CCN2C[C@H]1c1ccccc1 | -0.196% |
| COc1cc(N2C[C@H]3OCC[C@H]3[C@H](C(=O)N3CCCC3)C2)ncn1 | 27.7% |
| Cc1nc2ccccc2c(=O)n1CCC(=O)N1CCCC1 | -6.75% |
| Cc1cc(CN2CCc3nc(C(C)C)nc(O)c3CC2)c(C)s1 | -0.545% |
| COc1ccc(-c2n[nH]cc2CN(C)CCCN2CCOCC2)c(F)c1 | -3.86% |
| O=C(CCn1c(=O)oc2ccccc21)NCC(O)c1ccc(Cl)cc1 (stereo not given) | 9.7% |
| Cn1cc(-c2nc(CN3CCc4c(ncn4C4CC4)C3)cs2)cn1 | -15.2% |
| NC(=O)c1cccc(CN2CCOC(Cn3cccn3)C2)c1 (stereo not given) | 8.52% |
| CN1CCC(c2nnc(CN3CCCC3)n2C2CC2)CC1 | -6.39% |
| N#CCc1ccc(OCC(=O)NS(=O)(=O)c2cccs2)cc1 | 1.77% |
| COc1cc(N2CCC3(CC2)CC(N2CCOCC2)CO3)ncn1 (stereo not given) | -2.9% |
| O=C(Nc1ccc(F)c(Br)c1)N1CCCC1 | -1.36% |
| Cc1ccc(C)c(S(=O)(=O)CCN2CCc3c(ncn3C)C2)c1 | 16% |
| CN1CCN(S(=O)(=O)c2ncn(C)c2Cl)CC1 | -5.44% |
| Cc1c[nH]c(CN(C)C(=O)c2ccc(CSc3nnc[nH]3)o2)n1 | -1.05% |
| CCc1nc(NC2CCN(CC(=O)NC3CC3)CC2)c2cnn(C)c2n1 | 14.5% |
| CSC(C)(C)CNC(=O)Nc1cccc(-c2nccn2C)c1 | -3.46% |
| COc1ccc(CC(=O)N2C[C@H]3CN(Cc4ccccn4)C[C@H]3C2)cc1 | -3.26% |
| COCc1nc(CN2CCOC(CNc3cccnn3)C2)cs1 (stereo not given) | -11.6% |
| CCN1CCCN(C(=O)c2cnc(OC(C)C)c(Cl)c2)CC1 | 9.31% |
| Fc1ccc(CN2CC[C@H]3O[C@@H](COCc4cccnc4)CC[C@H]32)cc1 | -6.39% |
| O=c1cc(Cn2ccnc2)nc2n1CCCN(S(=O)(=O)C1CC1)C2 | -11.3% |

| SMILES | cytotoxicity at 70.5 h |
| --- | --- |
| CCN1CCN(C(=O)c2cc(-c3ccc(C)o3)n[nH]2)[C@H]2CS(=O)(=O)C[C@H]21 | 42.7% |
| CC(C)Oc1ccc(C(=O)NCc2ccnc(N3CCCC3)c2)cn1 | -10.1% |
| Cc1cnn(CC(=O)N2CCC3(CCC(=O)N(C4CCCC4)C3)CC2)c1 | -2.24% |
| Cc1ccc(-c2nnc(CN3CC(n4cc(C)cn4)C3)o2)cc1 | -13.9% |
| Cn1cc(C#N)cc1C(=O)NC1(C#N)CCSCC1 | -4.89% |
| CS(=O)(=O)N1Cc2nc(C(=O)NCc3ccccc3)oc2C1 | -5.1% |
| CC(=O)N1C[C@H](NS(=O)(=O)N2CCCC2)[C@@H](c2ccc(C)o2)C1 | -7.2% |
| CC(=O)N1CC[C@H]2N(C)CC[C@@]2(C(=O)Nc2cccnc2)CC1 | -8.43% |
| Cc1csc(NC(=O)C2CSCCC(=O)N2)n1 (stereo not given) | -0.709% |
| COc1cc2c(cc1-c1nc3c(cnn3C)[nH]1)OCO2 | 12.3% |
| COc1ccc(C(=O)C2CCCN(c3cc(OC)ncn3)C2)c(C)c1 (stereo not given) | 10.1% |
| O=C1CCC2(CCNCC2)CN1CCCOc1cccnc1 | -1.48% |
| Cc1cc(CN2CCN(CC(O)C(C)(C)C)CC2)no1 (stereo not given) | 9.4% |
| Cc1nc(C)c(C(=O)NCCNc2ncccc2C#N)s1 | -7.46% |
| COC(=O)Cn1c(=O)nc2n1C(=O)N(c1cccc(Cl)c1)C2 | -5.07% |
| Cc1ccnc(N2Cc3cnn(Cc4ccc(F)cc4)c3C2)n1 | 15.1% |
| O=C(Cc1ccsc1)N1C[C@@H]2OCCN(CC3CCCO3)[C@@H]2C1 (stereo not given in full) | 7.05% |
| Cc1ccc(C)c2c(O)cc(CNCCNC(=O)C(C)C)nc12 | -6.05% |
| COCCN1CCCn2cnc(CN(C)C(C)C)c2C1 | 4.24% |
| CC(C)Oc1cccc(C(=O)C2CCCN(S(=O)(=O)C(C)C)C2)c1 (stereo not given) | -7.26% |
| CC(=O)N1C[C@H]2CNC[C@@]2(C(=O)NCCOc2ccccc2F)C1 | 0.818% |
| COc1ccccc1CCN1CCCC(CN(C)Cc2ccc(C)o2)C1 (stereo not given) | -8.57% |
